Laboratory results as given in paper PMC4472782, “Antibacterial Characterization of Novel Synthetic Thiazole Compounds against Methicillin-Resistant Staphylococcus pseudintermedius” (PLoS ONE, 2015).
≈ marks a conversion by molar mass, not a printed value. Counter-ions that a name gives are not always drawn. Like-named read-outs stand apart in the source and are kept apart here.

Legend:
[1] = tested on: methicillin-resistant Staphylococcus pseudintermedius; assay: MIC by broth microdilution against MRSP clinical isolates; type: cell-based; details: for MIC50: Staphylococcus pseudintermedius
Protocol: (§1) Fifteen isolates of S. pseudintermedius (nine MSSP and six MRSP), identified at the Indiana Animal Disease Diagnostic Laboratory from specimens collected from dogs admitted to the small animal teaching hospital at Purdue University, were included in the study. The specimens were not collected specifically for this research study but were obtained from patients admitted to the hospital for treatment. Clinical specimens were inoculated onto 5% sheep blood agar and incubated at 35°C for 18–24 hours. Standard methods including examination of colony morphology and hemolysis and biochemical tests such as tube coagulase, Voges-Proskauer (VP) and fermentation tests for maltose, trehalose and lactose, were used in addition to matrix-assisted laser desorption ionization time of flight mass spectrometry to identify isolates. Antimicrobial susceptibility was determined by broth microdilution using the SensiTitre (Thermofisher Scientific).
(§2) Bacteria were prepared in phosphate-buffered saline (PBS) until a McFarland standard of 0.5 was achieved. The solution was subsequently diluted 1:300 in Mueller-Hinton broth (MHB) to reach a starting inoculum of 1 × 10^5 colony-forming units (CFU/mL). Bacteria were then transferred to a 96-well microtiter plate. Thiazole compounds and antibiotics were added (in triplicate) to wells in the first row of the microtiter plate and then serially diluted along the vertical axis. […] The MIC was categorized as the concentration where there was no visible growth of bacteria observed.

[2] = tested on: methicillin-sensitive Staphylococcus pseudintermedius; assay: MIC by broth microdilution against MSSP clinical isolates; type: cell-based; details: for MIC50: lowest concentration inhibiting growth in 50% of isolates; for MIC: read-out: MIC Range
Protocol: as §1, §2

[3] = tested on: methicillin-resistant Staphylococcus pseudintermedius; assay: MBC determination against MRSP clinical isolates; type: cell-based; details: for MBC: Staphylococcus pseudintermedius, read-out: MBC50
Protocol: (§3) The MBC was determined by plating 5 μL from wells on the 96-well microtiter plate (where the MIC was determined) where no growth was observed onto Tryptic soy agar (TSA) plates. […] The MBC was categorized as the concentration where ≥99% reduction in bacterial cell count was observed.

[4] = tested on: methicillin-sensitive Staphylococcus pseudintermedius; assay: MBC determination against MSSP clinical isolates; type: cell-based; details: nine MSSP isolates; for MBC: Staphylococcus pseudintermedius, lowest concentration that killed 50% of isolates, read-out: MBC50
Protocol: as §3

[5] = tested on: MRSP SP3; assay: Post-antibiotic effect against MRSP; type: cell-based, Staphylococcus pseudintermedius; details: 4 × MIC for one hour
Protocol: A tube containing untreated bacterial cells served as a control. Afterward, the compound/antibiotic was washed out by diluting bacteria 1:1000 in MHB. Counts of CFU for all cultures were obtained after washing. Aliquots (100 μL) of bacteria were removed every hour (for 10 hours), serially diluted in PBS, and plated on TSA plates. TSA plates were incubated for 20 hours at 37°C before CFU values were determined.

[6] = tested on: murine macrophage cell line (J774.A1); assay: In vitro cytotoxicity analysis (MTS assay); type: cell-based; details: 10 μg/mL, J774.A1, two hours
Protocol: Compounds were assayed at concentrations of 5 μg/mL, 10 μg/mL, 20 μg/mL, and 40 μg/mL against a murine macrophage cell line (J774.A1) (ATCC TIB-67, American Type Culture Collection (ATCC), Manassas, VA, USA) to determine the potential toxic effect in vitro. Cells were cultured in Dulbeco’s modified Eagle’s medium (Sigma-Aldrich, St. Louis, MO, USA) with 10% fetal bovine serum (USA Scientific, Inc.) at 37°C with 5% CO2. Controls received DMSO alone at a concentration equal to that in drug-treated cell samples. The cells were incubated with the compounds in a 96-well plate at 37°C and 5.0% CO2 for two hours prior to addition of the assay reagent MTS 3-(4,5-dimethylthiazol-2-yl)-5-(3-carboxymethoxyphenyl)-2-(4-sulfophenyl)-2H-tetrazolium) (Promega, Madison, WI, USA). Absorbance readings were taken using a kinetic ELISA microplate reader (Molecular Devices, Sunnyvale, CA, USA). The quantity of viable cells after treatment with each compound was expressed as a percentage of the control, DMSO.
(§4) All statistical analyses were performed with GraphPad Prism 6.0 (GraphPad Software, La Jolla, CA). Data generated from cytotoxicity analysis of the thiazole compounds against J774.A1 cells and the 260 and 280 nm cell leakage analysis were analyzed using one-way ANOVA, with post hoc Tukey's multiple comparisons test (P < 0.05).

[7] = tested on: MRSP SP3; assay: Checkerboard assay of thiazole compounds with oxacillin; type: cell-based, Staphylococcus pseudintermedius; details: for ƩFIC: combination with oxacillin, ≤ 0.5 synergistic, > 0.5 to ≤ 4.0 indifference, > 4 antagonistic; for relationship with oxacillin: checkerboard assay
Protocol: The relationship between the thiazole compounds and oxacillin was assessed via a standard checkerboard assay. Bacteria (MRSP SP3) equivalent to a McFarland standard of 0.5 were prepared in PBS. The bacteria were next diluted in MHB to achieve a starting cell density of 1 × 10^5 CFU/mL. MHB was transferred to all wells of a 96-well microtiter plate. […] Oxacillin was serially diluted along the abscissa of the microtiter plate while the thiazole compound was serially diluted along the ordinate. The plate was incubated for 22–24 hours at 37°C. The MIC of the test compound in combination with oxacillin was determined as the lowest concentration of each compound/antibiotic where no visible growth of bacteria was observed. The fractional inhibitory concentration index (ƩFIC) was calculated for each combination as described previously. A synergistic relationship was classified as an FIC index less than or equal to 0.5. […]

[8] = tested on: MRSP SP3; assay: Time-kill analysis against MRSP; type: cell-based, Staphylococcus pseudintermedius; details: 4 × MIC; for time required to completely eliminate MRSP: MRSP SP3, 24 hour incubation at 37°C
Protocol: MRSP SP3 cells in late logarithmic growth phase were diluted to ~1 × 10^6 CFU/mL and exposed to concentrations equivalent to 4 × MIC (in triplicate) of thiazole compounds 1–6 and rifampicin in MHB. Samples (20 μL) were collected after 0, 2, 4, 6, 8, 10, 12, and 24 hours of incubation at 37°C and subsequently serially diluted in PBS. Bacteria were then transferred to TSA plates and incubated at 37°C for 20–24 hours before viable CFU/mL values were determined.

[9] = tested on: MRSP SP3; assay: Cell membrane disruption (260/280 nm cell leakage) analysis; type: cell-based, Staphylococcus pseudintermedius; details: for absorbance (260 and 280 nm leakage) compared with untreated cells, statistical result: MRSP SP3, 30 minutes, one-way ANOVA, Tukey, P ≤ 0.05
Protocol: In order to investigate the antimicrobial effect of the thiazole compounds on the integrity of the bacterial cell membrane, the release of 260 and 280 nm absorbing components was determined spectrophotometrically. […] Untreated MRSP SP3 cells or cells treated with vancomycin (inhibits cell wall synthesis in bacterial cells) served as negative controls. For the release of 260 and 280 nm absorbing material, the bacterial suspension (control) was treated with lysostaphin (in 50 mM Tris-HCl, pH 8.00) for 30 minutes. Lysostaphin was used as a positive control due to its mode of action being the disruption of the cross-linking of the pentaglycin bridges in the cell wall of staphylococci bacteria. The absorbance of cell supernatant at 260 and 280 nm was determined using a spectrophotometer (Jenway 6305). The average OD260 and OD280 values of duplicates of each treatment option were calculated and expressed as the proportion of average OD260 (or OD280) for each treatment option compared to the average OD260 (or OD280) for the positive control (lysostaphin).
as §4

[10] = tested on: MRSP (SP3); assay: Multi-step resistance selection; type: cell-based, Staphylococcus pseudintermedius; details: for shift in the MIC over ten passages: MRSP SP3, ten serial passages; for MIC: Staphylococcus pseudintermedius
Protocol: To assess the ability of MRSP to develop resistance to the thiazole compounds, a multi-step resistance selection experiment was performed, as described elsewhere. The broth microdilution method for MIC determination against a clinical isolate of MRSP (SP3) was repeated for ten passages over a period of ten days. The initial inoculum was prepared to a McFarland standard of 0.5. The solution was subsequently diluted 1:300 in MHB to reach a starting inoculum of 1 × 10^5 CFU/mL. For each subsequent passage, the inoculum for the MIC determination was adjusted to a final density of approximately 5 × 10^5 CFU/mL using the contents of a well containing a subinhibitory concentration of the compound (where bacterial growth was observed from the previous passage). Bacteria were then transferred to a new 96-well microtiter plate.

[11] = six MRSP isolates, triplicate, read-out: MIC50

Row | Compound | MIC50 [1, 11] [µg/mL] | MIC50 ([2]; nine MSSP isolates, triplicate) [µg/mL] | MIC ([2]; nine MSSP isolates, triplicate) [µg/mL] | MBC ([3]; six MRSP isolates) [µg/mL] | MBC [4] [µg/mL] | Post-antibiotic Effect [5] [h] | toxicity to murine macrophage cells (MTS assay) [6] | ƩFIC [7] | time required to completely eliminate MRSP [8] | MIC Range ([1]; six MRSP isolates, triplicate) [µg/mL] | MBC Range ([3]; six MRSP isolates) [µg/mL] | MBC Range [4] [µg/mL] | absorbance (260 and 280 nm leakage) compared with untreated cells, statistical result [9] | shift in the MIC over ten passages [10] | MIC ([10]; read-out: initial MIC) [µg/mL] | also measured
1 | CCC[C@@H]1C[C@@H](C(=O)N[C@@H]([C@H]2O[C@H](SC)[C@H](O)[C@@H](O)[C@H]2O)[C@H](C)Cl)N(C)C1 [Clindamycin, Clindamycin hydrochloride monohydrate, reference compound] | 0.48 | 0.48 | 0.24 to 61.4 | 30.7 | 0.48 | 2 |  |  |  |  |  |  |  |  |  | Post-antibiotic Effect ([5]; listed as clindamycin): two hours
2 | C/C(=N\NC(=N)N)c1sc(-c2ccc(-c3ccccc3)cc2)nc1C [Compound 2] | 0.46 (≈ 1.32 µM) | 0.3 (≈ 0.858 µM) | 0.15 to 0.61 (≈ 0.429 to 1.75 µM) | 0.61 (≈ 1.75 µM) | 0.61 (≈ 1.75 µM) | 8 | toxic | 0.56 | eight hours | 0.15 to 0.61 | 0.30 to 0.81 | 0.15 to 2.42 | no statistical difference |  |  | intracellular content (at 260 nm) released compared to cells treated with lysostaphin ([9]; 4 × MIC, 30 minutes, MRSP SP3): Less than 20%
3 | C/C(=N\NC(=N)N)c1sc(-c2ccc(-c3ccc(F)cc3)cc2)nc1C [Compound 4] |  | 0.73 (≈ 1.99 µM) | 0.18 to 2.94 (≈ 0.49 to 8 µM) |  | 1.1 (≈ 2.99 µM) | >9 | not toxic | 0.63 | 12 h | 0.37 to 1.47 |  | 0.18 to 2.94 |  | two-fold increase | 1.47 (≈ 4 µM) | MIC50 [1]: 1.47 µg/mL (≈ 4 µM); MBC [3]: 1.47 µg/mL (≈ 4 µM)
4 | C/C(=N\NC(=N)N)c1sc(-c2ccc(-c3ccc(C(F)(F)F)cc3)cc2)nc1C [Compound 5] | 0.42 (≈ 1.01 µM) | 0.42 (≈ 1.01 µM) |  | 0.42 (≈ 1.01 µM) | 0.42 (≈ 1.01 µM) | 8 | not toxic | 0.38 | eight hours | 0.21 to 1.67 | 0.21 to 3.34 | 0.21 to 6.67 |  | two-fold increase | 1.67 (≈ 4 µM) | relationship with oxacillin [7]: synergistic; MIC [2]: 0.21 to 1.67 µg/mL (≈ 0.503 to 4 µM); MIC ([10]; read-out: MIC after the second serial passage (stable until the seventh passage)): 3.34 µg/mL (≈ 8 µM); MIC ([10]; read-out: MIC at the seventh passage): 6.68 µg/mL (≈ 16 µM)
5 | C/C(=N\NC(=N)N)c1sc(-c2ccc(-c3cccc4ccccc34)cc2)nc1C [Compound 6] | 0.4 (≈ 1 µM) | 0.8 (≈ 2 µM) | 0.2 to 1.6 (≈ 0.501 to 4 µM) | 0.8 (≈ 2 µM) | 1.06 (≈ 2.65 µM) | >9 | toxic | 0.38 | within two hours | 0.20 to 1.60 | 0.20 to 1.60 | 0.20 to 3.19 |  | four-fold increase | 1.6 (≈ 4 µM) | relationship with oxacillin [7]: synergistic
6 | CO[C@H]1/C=C/O[C@@]2(C)Oc3c(C)c(O)c4c(O)c(c(/C=N/N5CCN(C)CC5)c(O)c4c3C2=O)NC(=O)/C(C)=C\C=C\[C@H](C)[C@H](O)[C@@H](C)[C@@H](O)[C@@H](C)[C@H](OC(C)=O)[C@@H]1C [Rifampicin, rifampicin, reference compound] | < 0.41 | < 0.41 | < 0.41 | < 0.41 | < 0.41 | >9 |  |  |  | <0.41 | <0.41 | <0.41 |  |  |  | time-kill behaviour (in words) ([8]; MRSP SP3): slow bactericidal activity against MRSP SP3 within the first eight hours of the assay before rapid bacterial re-growth; Post-antibiotic Effect ([5]; listed as rifampicin): > 9 h
7 | CN[C@H](CC(C)C)C(=O)N[C@H]1C(=O)N[C@@H](CC(N)=O)C(=O)N[C@H]2C(=O)N[C@H]3C(=O)N[C@H](C(=O)N[C@H](C(=O)O)c4cc(O)cc(O)c4-c4cc3ccc4O)[C@H](O)c3ccc(c(Cl)c3)Oc3cc2cc(c3O[C@@H]2O[C@H](CO)[C@@H](O)[C@H](O)[C@H]2O[C@H]2C[C@](C)(N)[C@H](O)[C@H](C)O2)Oc2ccc(cc2Cl)[C@H]1O [vancomycin, vancomycin hydrochloride, reference compound] |  |  |  |  |  |  |  |  |  |  |  |  | no statistical difference |  |  | 
8 | lysostaphin: positive control; disrupts cross-linking of the pentaglycin bridges in the cell wall of staphylococci [reference compound] |  |  |  |  |  |  |  |  |  |  |  |  | significant difference |  |  | 
